In PubChem BioAssay (NCI) one finds TGI and GI50 data, which are given here for 15 compounds.

Some test systems named below: SNB-19 CNS; MOLT-4 leukemia; RXF 393 renal; COLO 205 colon; SR leukemia; A498 renal; SK-MEL-5 melanoma; SF-295 CNS; MDA-MB-231 breast; BT-549 breast.
Holding throughout (assay): NCI-60 cell line screen, 48 h

Values joined by “and” are separate entries in the source; they are usually repeats but may differ in a detail not shown here. Equal values may be shown once.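 Tested at 5 concentrations; 48 h exposure; 96-well plates; endpoints linearly interpolated, else capped at highest concentration. The concentration for 50% growth inhibition is given as GI50. TGI is the concentration that stops growth completely.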 Where only a bound is given, the exact number is not on record here.

As to `CC(=O)[O-].CC(=O)[O-].O=C(N/N=C/c1cc(Cl)cc(Cl)c1O)c1ccncc1.[Cu+2]`, the TGI with SNB-19 CNS, in the test with MOLT-4 leukemia, with RXF 393 renal, in the test on COLO 205 colon, in the test on SR leukemia and in the test with A498 renal was > 100 µM each time. Besides, the TGI in the test with SK-MEL-5 melanoma and with SF-295 CNS was > 100 µM throughout.

On to `Cn1cc(-c2cc3c(N4CCN(c5ncc([C@@](C)(N)c6ccc(F)cc6)cn5)CC4)ncnn3c2)cn1`, for which the GI50 in the test with MDA-MB-231 breast is 4.77 µM; in the test with BT-549 breast it was 5.15 µM; in the test with SNB-19 CNS, 9.63 µM; in the test on MOLT-4 leukemia, 2.52 µM; in the test on RXF 393 renal, 2.66 µM; in the test on A498 renal, 6.24 µM. Further, the GI50 with SF-295 CNS was 3.56 µM. For the same compound, the TGI in the test with MDA-MB-231 breast, in the test on BT-549 breast, with SNB-19 CNS, in the test on MOLT-4 leukemia, in the test with RXF 393 renal and with A498 renal was > 100 µM in each case. The TGI in the test on SF-295 CNS was > 100 µM.

Consider `Clc1ccc2cccc3c2c1C1OC3c2ccccc21` (stereo not given), for which the TGI in the test on SNB-19 CNS, in the test on MOLT-4 leukemia, with RXF 393 renal, in the test with COLO 205 colon, with SR leukemia and in the test with A498 renal was > 100 µM throughout. Also, in the test with SF-295 CNS, the TGI is > 100 µM.

Take `Cc1[cH-]c(=O)n(-c2ccccc2)n1.[Au+].[Au].c1ccc([PH+](c2ccccc2)c2ccccc2)cc1.c1ccc([PH+](c2ccccc2)c2ccccc2)cc1`: the GI50 is 12.5 µM in the test on SNB-19 CNS; 36.6 µM in the test on MOLT-4 leukemia; 0.756 µM and 6.89 µM in the test on RXF 393 renal; 25.3 µM in the test with COLO 205 colon; 26.4 µM with SR leukemia; 23.9 µM in the test on A498 renal. In addition, the GI50 is 16.8 µM in the test on SK-MEL-5 melanoma and 15.1 µM with SF-295 CNS. For the same compound, the TGI was 32.7 µM with SNB-19 CNS; > 100 µM with MOLT-4 leukemia; 3.32 µM and 28.5 µM in the test on RXF 393 renal; 60.6 µM with COLO 205 colon; > 100 µM with SR leukemia; 38.9 µM in the test on A498 renal. Besides, the TGI came out at 36.2 µM with SK-MEL-5 melanoma and 35.2 µM with SF-295 CNS.

With `N#CCCC[Si]12OCCN(CCO1)CCO2`, the TGI in the test on SNB-19 CNS, with MOLT-4 leukemia, in the test on RXF 393 renal, in the test with COLO 205 colon, in the test on SR leukemia and with A498 renal was > 100 µM each time. For the same compound, the TGI in the test with SK-MEL-5 melanoma and in the test with SF-295 CNS was > 100 µM each time.

For `CC#Cc1ccc(-c2ccccc2)s1`, the TGI in the test on MDA-MB-231 breast, with SNB-19 CNS, in the test with MOLT-4 leukemia, in the test on RXF 393 renal, with COLO 205 colon and in the test on SR leukemia was > 100 µM each time. Further, the TGI in the test on A498 renal, with SK-MEL-5 melanoma and with SF-295 CNS was > 100 µM in each case.

Consider `O=C(/C=C/c1c(O)ccc2ccccc12)c1ccc([N+](=O)[O-])cc1`, for which the TGI is > 100 µM with SNB-19 CNS; > 90.4 µM in the test with MOLT-4 leukemia; 61.8 µM with RXF 393 renal; > 72.5 µM with COLO 205 colon; > 100 µM with SR leukemia; > 100 µM in the test with A498 renal. Besides, the TGI was 34.5 µM in the test with SK-MEL-5 melanoma and > 100 µM with SF-295 CNS.

Consider `COc1c(CC(C)=O)ccc2c1C(=O)c1ccc(C=O)c(OC(C)=O)c1C2=O`, for which the TGI with SNB-19 CNS came to 57.4 µM; in the test on MOLT-4 leukemia, 47.6 µM; in the test on RXF 393 renal, 25.4 µM; in the test on COLO 205 colon, 31.6 µM; with A498 renal it was 80.3 µM; in the test with SK-MEL-5 melanoma, 27.8 µM. This compound also yielded a TGI in the test on SF-295 CNS of 53.3 µM.

As to `CCOC(=O)C1Sc2ccccc2N=C1C` (stereo not given), the TGI in the test on SNB-19 CNS, with MOLT-4 leukemia, in the test on RXF 393 renal, with COLO 205 colon, in the test on SR leukemia and with A498 renal was > 100 µM in each case. Besides, the TGI in the test with SF-295 CNS is > 100 µM.

Take `CN1C(=O)C(=O)N2c3ccc(Cl)cc3C3(c4ccccc4)N=CC12O3` (stereo not given): the TGI with SNB-19 CNS came to 26.8 µM; in the test on MOLT-4 leukemia it was 7.56 µM; with RXF 393 renal, 6.34 µM; with COLO 205 colon, 15 µM; in the test on A498 renal, 22.9 µM; in the test on SK-MEL-5 melanoma, 17.6 µM. In the test on SF-295 CNS, this compound gave a TGI of 23.2 µM.

In the case of `COc1ccc(/C=C/COC(C)=O)cc1OC`, the TGI in the test on SNB-19 CNS, in the test with MOLT-4 leukemia, in the test on RXF 393 renal, in the test with COLO 205 colon, in the test on SR leukemia and in the test on SK-MEL-5 melanoma was > 100 µM throughout. For the same compound, in the test with SF-295 CNS, the TGI is > 100 µM.

As for `CN(C)CC1CCCC/C1=N/O` (stereo not given), the TGI in the test with MOLT-4 leukemia, in the test on RXF 393 renal, in the test on COLO 205 colon, with A498 renal, with SK-MEL-5 melanoma and in the test with SF-295 CNS was > 100 µM in each case.

As for `Cc1nnc2ccnn2c1C`, the GI50 is > 100 µM with MDA-MB-231 breast; > 100 µM in the test on BT-549 breast; > 100 µM with SNB-19 CNS; > 100 µM in the test with MOLT-4 leukemia; > 100 µM with COLO 205 colon; 23.8 µM in the test with SK-MEL-5 melanoma. The GI50 with SF-295 CNS is > 100 µM. Also, the TGI with MDA-MB-231 breast, in the test with BT-549 breast, with SNB-19 CNS, in the test on MOLT-4 leukemia, in the test on COLO 205 colon and in the test with SK-MEL-5 melanoma was > 100 µM each time. Further, in the test on SF-295 CNS, the TGI is > 100 µM.

For `O=c1[nH]c(-c2ccccc2)nc2cc(Cl)ccc12`, the TGI with MOLT-4 leukemia, with RXF 393 renal, in the test on A498 renal, with SK-MEL-5 melanoma and with SF-295 CNS was > 100 µM throughout.

In the case of `CCCOc1nc(N)c2cnn(C3CCCCO3)c2n1` (stereo not given), the TGI in the test with SNB-19 CNS, in the test with MOLT-4 leukemia, in the test with RXF 393 renal, in the test with COLO 205 colon, in the test with SR leukemia and with SK-MEL-5 melanoma was > 100 µM in each case. The TGI in the test on SF-295 CNS was > 100 µM.
